Data as given in ChEMBL document CHEMBL1201862, “PubChem BioAssay data set” (2004).
The source made the active and inactive calls.

Tests used:
Cytochrome P450 3A4 [1] = target: T1, Cytochrome P450 3A4 (Homo sapiens, UniProt P08684); conditions: Potency
INS1 = experiment: INS-1E survival protection against cytokine death – cell-based, luminescence, retest, dose response (AID 449756); format: functional; conditions: Rattus norvegicus;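 note: cell death triggered by IL-1 beta plus TNF-alpha plus IFN-gamma mixture; protective hits raise ATP signal compared with cytokine alone wells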
[2] = target: Voltage-dependent T-type calcium channel subunit alpha-1H (Homo sapiens, UniProt O95180); format: functional;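 note: channel activity triggered by adding a high calcium stimulation buffer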
Aminopeptidase N = target: T2, Aminopeptidase N (Plasmodium falciparum FcB1/Columbia, UniProt O96935); experiment: malaria alanyl aminopeptidase activity blockers – biochemical, fluorogenic H-Leu-NHMec substrate, 1536-well (AID 1445); set-up: species or system Plasmodium falciparum 3D7, 3D7
T2 sequence (O96935 whole entry): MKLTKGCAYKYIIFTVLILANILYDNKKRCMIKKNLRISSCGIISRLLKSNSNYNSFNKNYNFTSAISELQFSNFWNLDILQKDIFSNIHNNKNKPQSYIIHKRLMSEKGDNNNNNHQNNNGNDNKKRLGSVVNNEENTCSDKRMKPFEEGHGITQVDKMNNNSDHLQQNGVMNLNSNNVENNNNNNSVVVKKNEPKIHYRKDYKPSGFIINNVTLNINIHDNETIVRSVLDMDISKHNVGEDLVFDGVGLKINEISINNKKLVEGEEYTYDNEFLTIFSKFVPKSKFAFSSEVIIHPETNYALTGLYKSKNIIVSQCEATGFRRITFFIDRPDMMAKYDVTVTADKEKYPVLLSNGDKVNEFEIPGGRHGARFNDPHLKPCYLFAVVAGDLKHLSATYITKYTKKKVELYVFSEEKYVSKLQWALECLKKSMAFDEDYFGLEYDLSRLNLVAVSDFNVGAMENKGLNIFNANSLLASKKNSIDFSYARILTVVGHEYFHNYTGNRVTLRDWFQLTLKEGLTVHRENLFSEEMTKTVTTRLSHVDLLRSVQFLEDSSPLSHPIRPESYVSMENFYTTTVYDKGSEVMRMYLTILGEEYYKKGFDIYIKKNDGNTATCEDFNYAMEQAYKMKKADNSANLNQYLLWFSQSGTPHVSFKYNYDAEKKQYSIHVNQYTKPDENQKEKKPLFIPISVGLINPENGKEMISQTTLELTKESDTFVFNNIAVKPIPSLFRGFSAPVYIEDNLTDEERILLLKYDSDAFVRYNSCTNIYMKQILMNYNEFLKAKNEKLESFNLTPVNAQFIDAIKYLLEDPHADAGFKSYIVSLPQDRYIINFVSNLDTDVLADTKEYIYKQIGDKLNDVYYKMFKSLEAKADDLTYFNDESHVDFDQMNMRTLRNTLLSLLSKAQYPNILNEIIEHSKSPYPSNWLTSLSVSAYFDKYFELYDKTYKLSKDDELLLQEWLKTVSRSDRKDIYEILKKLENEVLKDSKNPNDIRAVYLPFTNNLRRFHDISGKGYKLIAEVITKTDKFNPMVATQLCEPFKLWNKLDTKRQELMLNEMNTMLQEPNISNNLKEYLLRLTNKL

Leucine aminopeptidase = target: T3, Leucine aminopeptidase (Plasmodium falciparum 3D7, UniProt Q8IL11); experiment: P. falciparum M17LAP inhibitors, primary screen, biochemical, fluorogenic H-Leu-NHMec substrate, 1536-well (AID 1619); format: functional
T3 sequence (Q8IL11 whole entry): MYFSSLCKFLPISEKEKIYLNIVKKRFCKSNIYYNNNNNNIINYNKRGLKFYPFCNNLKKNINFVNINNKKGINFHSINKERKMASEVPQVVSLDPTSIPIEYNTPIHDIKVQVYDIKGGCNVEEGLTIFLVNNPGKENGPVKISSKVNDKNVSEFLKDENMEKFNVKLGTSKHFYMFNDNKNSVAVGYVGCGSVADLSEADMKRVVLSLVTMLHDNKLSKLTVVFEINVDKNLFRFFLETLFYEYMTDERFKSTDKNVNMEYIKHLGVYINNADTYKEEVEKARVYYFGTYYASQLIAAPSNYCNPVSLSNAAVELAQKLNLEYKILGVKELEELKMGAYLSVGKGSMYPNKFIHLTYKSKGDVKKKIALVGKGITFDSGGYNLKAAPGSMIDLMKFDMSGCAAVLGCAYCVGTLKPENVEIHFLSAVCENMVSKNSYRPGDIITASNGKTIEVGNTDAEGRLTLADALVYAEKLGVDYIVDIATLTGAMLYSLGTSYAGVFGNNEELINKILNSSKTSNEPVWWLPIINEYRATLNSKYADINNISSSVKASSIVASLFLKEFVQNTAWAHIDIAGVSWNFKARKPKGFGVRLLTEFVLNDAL

[3] = HEK-293T cell viability reduction – luminescence, B-cell screen hits, cytotoxicity control for BCR NF-kB inhibitor project, dose response (AID 489021); format: functional, cell-based;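 note: HEK-293T cells carrying an NF-kB luciferase reporter; cells exposed to compound for about 14 hours before viability readout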
cells [4] = format: functional, cell-based
cells [5] = format: functional, cell-based; remark: listed apart in the source
[6] = fluconazole-exposed Candida albicans growth modulators – fluorescence, retest, confirmation (AID 2467); format: functional, cell-based
[7] = NIH-3T3 fibroblast cytotoxicity, dose response, cytotoxicity control, cell-based, fluorescence, Alamar Blue, secondary assay (AID 2327); format: functional;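 note: NIH-3T3 mouse fibroblasts cultured with fluconazole at 8 µg/mL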
Cytochrome P450 3A4 [8] = target: T1, Cytochrome P450 3A4
[9] = target: T4, Calpain-2 catalytic subunit (Sus scrofa, UniProt P43367); experiment: m-calpain protease blockers, concentration series – biochemical, fluorogenic peptide substrate, dose response (AID 1420); format: functional
T4 sequence (P43367 whole entry): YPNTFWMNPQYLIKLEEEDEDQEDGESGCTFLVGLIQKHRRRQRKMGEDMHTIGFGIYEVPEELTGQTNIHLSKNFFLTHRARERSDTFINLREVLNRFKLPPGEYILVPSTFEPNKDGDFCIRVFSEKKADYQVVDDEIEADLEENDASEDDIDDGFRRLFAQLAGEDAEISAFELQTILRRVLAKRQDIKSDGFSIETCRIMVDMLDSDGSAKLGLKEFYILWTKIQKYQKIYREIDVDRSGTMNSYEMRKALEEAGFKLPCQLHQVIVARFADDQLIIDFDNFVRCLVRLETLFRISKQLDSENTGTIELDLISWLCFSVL

T1 sequence (P08684 whole entry): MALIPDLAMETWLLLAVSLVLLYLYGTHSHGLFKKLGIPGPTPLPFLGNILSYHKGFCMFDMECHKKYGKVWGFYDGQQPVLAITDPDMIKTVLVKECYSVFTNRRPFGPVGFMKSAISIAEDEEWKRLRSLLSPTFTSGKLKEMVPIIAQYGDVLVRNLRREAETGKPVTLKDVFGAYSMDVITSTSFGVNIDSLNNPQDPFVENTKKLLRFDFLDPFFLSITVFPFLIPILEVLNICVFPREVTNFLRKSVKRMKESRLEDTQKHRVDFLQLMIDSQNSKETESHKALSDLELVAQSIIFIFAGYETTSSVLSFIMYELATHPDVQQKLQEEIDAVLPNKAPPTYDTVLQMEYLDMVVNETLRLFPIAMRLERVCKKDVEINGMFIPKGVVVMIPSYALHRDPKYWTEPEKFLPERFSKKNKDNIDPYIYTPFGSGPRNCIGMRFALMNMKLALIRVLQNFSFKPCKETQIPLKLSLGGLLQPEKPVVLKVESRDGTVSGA
Chain of Voltage-dependent T-type calcium channel subunit alpha-1H (O95180 whole entry): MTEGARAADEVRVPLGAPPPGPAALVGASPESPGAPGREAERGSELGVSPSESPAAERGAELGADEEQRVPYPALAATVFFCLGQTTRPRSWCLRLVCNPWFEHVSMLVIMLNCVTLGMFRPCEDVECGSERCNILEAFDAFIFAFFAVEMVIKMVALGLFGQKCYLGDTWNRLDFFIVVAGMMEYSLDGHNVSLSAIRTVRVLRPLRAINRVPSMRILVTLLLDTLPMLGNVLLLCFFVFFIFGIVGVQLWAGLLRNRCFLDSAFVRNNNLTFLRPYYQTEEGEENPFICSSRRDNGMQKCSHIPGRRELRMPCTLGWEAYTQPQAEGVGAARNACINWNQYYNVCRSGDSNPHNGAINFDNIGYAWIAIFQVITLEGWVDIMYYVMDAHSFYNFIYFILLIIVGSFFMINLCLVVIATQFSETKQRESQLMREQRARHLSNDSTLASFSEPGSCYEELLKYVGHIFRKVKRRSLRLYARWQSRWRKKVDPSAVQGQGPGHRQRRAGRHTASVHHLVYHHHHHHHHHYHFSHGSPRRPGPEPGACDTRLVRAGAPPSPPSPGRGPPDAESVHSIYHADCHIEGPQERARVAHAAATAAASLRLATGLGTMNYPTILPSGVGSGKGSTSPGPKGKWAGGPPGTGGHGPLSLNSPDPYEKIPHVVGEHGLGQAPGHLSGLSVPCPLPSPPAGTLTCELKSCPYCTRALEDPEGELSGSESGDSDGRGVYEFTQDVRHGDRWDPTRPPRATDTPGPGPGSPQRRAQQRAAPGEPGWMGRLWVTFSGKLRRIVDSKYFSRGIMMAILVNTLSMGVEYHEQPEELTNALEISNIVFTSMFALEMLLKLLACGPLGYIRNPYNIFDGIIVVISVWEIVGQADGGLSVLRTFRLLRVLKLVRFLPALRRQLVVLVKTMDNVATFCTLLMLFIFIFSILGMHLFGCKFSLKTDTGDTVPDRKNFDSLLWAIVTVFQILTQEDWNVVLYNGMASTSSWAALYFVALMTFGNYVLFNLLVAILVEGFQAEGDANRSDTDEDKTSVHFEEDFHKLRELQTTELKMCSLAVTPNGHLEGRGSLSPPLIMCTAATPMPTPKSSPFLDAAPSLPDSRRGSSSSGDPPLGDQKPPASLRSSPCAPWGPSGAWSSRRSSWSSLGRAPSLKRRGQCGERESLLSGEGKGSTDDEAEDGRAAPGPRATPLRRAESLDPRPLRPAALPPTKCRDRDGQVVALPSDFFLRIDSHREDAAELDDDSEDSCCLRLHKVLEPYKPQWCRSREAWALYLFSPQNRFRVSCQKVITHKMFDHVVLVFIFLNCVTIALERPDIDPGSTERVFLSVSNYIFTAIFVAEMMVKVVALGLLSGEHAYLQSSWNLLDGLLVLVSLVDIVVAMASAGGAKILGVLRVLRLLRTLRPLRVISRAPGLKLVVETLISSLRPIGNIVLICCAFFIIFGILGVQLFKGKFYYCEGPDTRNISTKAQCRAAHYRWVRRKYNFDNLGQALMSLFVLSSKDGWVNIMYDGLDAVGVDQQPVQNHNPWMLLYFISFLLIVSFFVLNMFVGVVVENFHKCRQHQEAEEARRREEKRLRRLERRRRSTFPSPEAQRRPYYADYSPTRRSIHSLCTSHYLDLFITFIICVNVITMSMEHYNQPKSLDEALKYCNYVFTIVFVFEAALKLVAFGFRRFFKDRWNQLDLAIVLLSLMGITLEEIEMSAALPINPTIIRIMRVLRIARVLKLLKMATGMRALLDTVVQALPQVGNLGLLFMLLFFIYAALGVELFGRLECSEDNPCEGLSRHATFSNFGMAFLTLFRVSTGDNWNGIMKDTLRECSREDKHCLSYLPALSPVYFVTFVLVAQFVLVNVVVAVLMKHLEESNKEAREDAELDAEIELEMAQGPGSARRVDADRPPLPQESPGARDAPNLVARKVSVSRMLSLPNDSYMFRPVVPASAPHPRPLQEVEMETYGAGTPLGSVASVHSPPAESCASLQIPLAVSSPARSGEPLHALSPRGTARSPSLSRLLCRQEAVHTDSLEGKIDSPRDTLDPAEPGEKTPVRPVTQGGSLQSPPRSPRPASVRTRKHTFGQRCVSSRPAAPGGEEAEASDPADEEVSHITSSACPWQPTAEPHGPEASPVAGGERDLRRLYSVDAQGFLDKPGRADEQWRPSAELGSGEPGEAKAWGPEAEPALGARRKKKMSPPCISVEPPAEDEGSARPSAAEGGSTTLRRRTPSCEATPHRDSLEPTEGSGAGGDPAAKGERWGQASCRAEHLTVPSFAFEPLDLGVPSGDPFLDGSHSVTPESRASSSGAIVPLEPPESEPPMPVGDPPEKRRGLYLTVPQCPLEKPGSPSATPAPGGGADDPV

In the case of `C/C=C/C1Oc2ccc(OC)cc2N2C(=O)C(C)C(OCOC)C12` (stereo not drawn), the AC50 (Cytochrome P450 3A4 [1]) is reported as 3.98 µM (inconclusive).
For `Cc1ccc(NC(=O)c2c(-c3c(F)cccc3Cl)noc2C)cc1F`, the AC50 (INS1) was > 260 µM (inactive) and the EC50 [2] was 5.69 µM (active).
In the case of `C=CC(C1=CC(=O)C(OC)=C(OC)C1=O)c1ccccc1` (stereo not drawn), the AC50 (Cytochrome P450 3A4 [1]) is reported as 15.8 µM (inconclusive).
With `CCOP(=O)(OCC)c1nc(-c2cccc([N+](=O)[O-])c2)oc1N1CCCCC1` the IC50 (Aminopeptidase N) was 50.1 µM (active).
With `CCOC(=O)C1=C(Nc2ccc(OC)cc2)S/C(=C\c2ccc(OCC(=O)O)c(OCC)c2)C1=O` the IC50 (Aminopeptidase N) was 36.3 µM (active) and the IC50 (Leucine aminopeptidase) was 21.3 µM (active).
For `Cc1c(O)c(CN2CCCCC2)cc2c3c(c(=O)oc12)CCC3`, the IC50 (Aminopeptidase N) was 37.5 µM (active).
In the case of `CCC(=O)N1c2ccccc2C(N(C(C)=O)c2ccccc2)CC1C` (stereo not drawn), the IC50 [3] is reported as > 80 µM (inactive), the EC50 (cells [4]) is reported as > 350 µM (not active) and the EC50 (cells [5]) is reported as > 350 µM (not active).
In the case of `O=c1oc2ccccc2n1CSc1nc2ccccc2s1`, the EC50 [2] is reported as 550 µM (active).
In the case of `Cn1cccc1Cc1nnc(SCC(=O)Nc2ccccc2)n1-c1ccc(F)cc1`, the EC50 [2] is reported as 2.44 µM (active).
For `Cc1ccc(N(C(=O)Cc2c[nH]c3ccccc23)C(C(=O)NC2CCCCC2)c2ccco2)cc1` (stereo not drawn), the EC50 [2] was 10.2 µM (active).
With `CC(C)C[C@H](NC(=O)c1[nH]cnc1C(=O)NC1CCN(C(=O)OC(C)(C)C)CC1)C(=O)OC(C)(C)C` the IC50 (Aminopeptidase N) was 63.9 µM (active).
In the case of `CCN1C(=O)c2cccc3c(S(=O)(=O)Nc4ccccc4)ccc1c23`, the IC50 [3] is reported as > 80 µM (inactive).
For `O=C(O)C/C(=C\c1ccc(Cl)cc1)c1nc2ccccc2o1`, the IC50 (Aminopeptidase N) was 33.9 µM (active) and the IC50 (Leucine aminopeptidase) was 105 µM (active).
For `CCC1=C(OC(=O)N(CC)CC)N2C(=O)O/C(=N\CCOC)[C@]2(C)[C@H]2C1=CC[C@H]1C(=O)NC(=O)[C@H]12`, the AC50 (Cytochrome P450 3A4 [1]) was 10 µM (inconclusive).
With `Nc1nonc1C(=O)N/N=C/c1cc(Br)ccc1O` the IC50 (Aminopeptidase N) was 3.45 µM (active), the EC50 (cells [4]) was 108 µM (active) and the EC50 [6] was 0.782 µM (active). For the same compound, the EC50 [7] was > 160 µM (inactive) and the EC50 (cells [5]) was > 350 µM (not active).
For `Cc1[nH]c2ccccc2c1SCC(=O)N1CCCc2ccccc21`, the EC50 [2] was 6.34 µM (active).
For `Clc1ccc2c(c1)C(N1CCNCC1)=Nc1ccccc1O2` [AMOXAPINE], the AC50 (Cytochrome P450 3A4 [8]) was 15.8 µM (inconclusive) and the AC50 (Cytochrome P450 3A4 [1]) was 10 µM (inconclusive).
With `C=CCNC(=O)c1cc([N+](=O)[O-])cc2c(=O)[nH]c(Nc3ccc(Cl)c(Cl)c3)nc12` the AC50 (Cytochrome P450 3A4 [1]) was 10 µM (inconclusive).
With `CCCC(=O)Nc1ccc(Sc2ccc([N+](=O)[O-])cc2)cc1` the IC50 [3] was 77.8 µM (inactive) and the IC50 [9] was 10.7 µM (not active).
For `CCCn1c(C)nc2c(N(CCN(C)C)Cc3ccccc3)nc(C)nc21`, the AC50 (Cytochrome P450 3A4 [1]) was 12.6 µM (inconclusive).
In the case of `CC(C)C(c1nnnn1Cc1ccccc1)N(Cc1ccco1)Cc1cccs1` (stereo not drawn), the IC50 [3] is reported as > 80 µM (inactive).
For `CC(=O)c1cccc(S(=O)(=O)Nc2cc(C(F)(F)F)ccc2N2CCOCC2)c1`, the IC50 [3] was > 80 µM (inactive).
